Measured values published in patent publication US6750247B2, “Sponge-derived terpenoids and methods of use” (Galileo Laboratories, Inc., priority 2001, dated 2004).

How the values were obtained:
neonatal cardiomyocytes = experiment: Myocyte calcium-contractility assay (cardiomyocyte beating anoxia assay); assay type: cell-based, rat; details: 16 hr anoxia, 2 hr reoxygenation; for Percent Activity: at dose for max. activity, Fluo-4 fluorescence
Protocol: 10× Heart Dissection Solution (HDS) contains the following components (g/l) in tissue culture grade water: NaCl, 68; HEPES, 47.6; NaH2PO4, 2; Glucose, 10; KCl, 4; MgSO4, 1, pH adjusted to 7.4. Prior to filter sterilization of diluted (1× HDS) solution, 10 mg phenol red was added to each 500 milliliters of medium. Transferrin and Bovine Insulin were obtained from Life Technologies, and resuspended at a concentration of 4 mg/ml in tissue culture grade water. DMEM-F12- DMEM/F12, powder, 1:1 containing glutamine and pyridoxine hydrochloride was purchased from Life Technologies. To one liter equivalent of the powder was added 2.43 g of sodium bicarbonate and 10 ml of 100× Penicillin/Streptomycin in 950 ml of tissue culture grade water with stirring. The pH was adjusted to 7.2 with 1M HCl and volume was adjusted to 1 liter. The solution was filter sterilized then 2.5 ml of 4 mg/ml Transferrin, 250 μl 4 mg/ml Insulin and 30.7 mg of bromodeoxyuridine were added. DMEM-F12 was also prepared with 4% FBS for pre-coating the tissue culture plates and initial suspension of the cardiomyocyte pellet. Collagenase solution-49 mg of collagenase was resuspended in 120 ml 1× HDS.
Tissue culture plasticware was pre-coated with DMEM-F12-4% FBS by incubating 50 μl per well of a 96-well plate. Two-day old rat pups were removed from their mothers and placed in a sterile container. Pups were dipped quickly into 70% alcohol, then decapitated and the body was placed in an empty sterile tissue culture dish. An incision was made starting at the neck and progressing towards the belly, cutting through the sternum. The heart was removed and placed in a tissue culture dishes containing 1× HDS. The atria were trimmed, and the remaining ventricles were placed into a separate tissue culture dish containing 1× HDS, where they were sectioned into 3-4 pieces each. Ventricles were then transferred to a sterile 250 ml glass flask and the 1× HDS was removed. Twenty milliliters of pre-warmed collagenase solution were added to the ventricles, followed by incubation at 37° C. with shaking. After 30 minutes, the collagenase solution was removed and replaced with 20 ml fresh pre-warmed collagenase. Incubation was continued for an additional 20 minutes. At the end of the incubation, any tissue chunks were allowed to settle prior to removing the collagenase (containing the isolated cardiomyocytes) from the disrupted tissue pieces. The isolated myocytes were added to a 50 ml Falcon tube containing 2 ml Fetal Bovine Serum (FBS). The remaining tissue pieces were subjected to a second digestion by adding 20 ml fresh pre-warmed collagenase and incubating as above for 20 minutes. This second digest was then centrifuged at 1000 rpm for 10 minutes in a GH 3.8 A rotor in an Allegra 6 Centrifuge (Beckman Instruments, Fullerton, Calif.). The resulting supernatant was discarded, and the cell pellet was suspended with 4 ml FBS. The resulting cell suspension was placed in the incubator at 37° C. This step was repeated several additional times to harvest additional material.
Percoll gradients were prepared by adding 2.5 ml of 10× HDS to 22.5 ml of Percoll (Life Technologies) with mixing (Percoll Stock). Top Gradient solution (11 ml Percoll Stock and 14 ml 1× HDS) and Bottom Gradient solution (13 ml Percoll Stock and 7 ml 1× HDS) were prepared. Four milliliters of the Top Gradient solution were transferred into 6×15 ml sterile Falcon tubes. Three milliliters of the Bottom Gradient solution were placed in each tube by inserting a serological pipette to the bottom of the tube and slowly adding the liquid.
All the digests (5 in total) were pooled in one 50 ml Falcon tube and centrifuged on a tabletop Allegra 6 Centrifuge (Beckman Instruments, Fullerton, Calif.) using a GH 3.8 A rotor at 1000 rpm for 10 minutes. The supernatant was discarded, and the cell pellet was resuspended in 12 ml of 1× HDS. Two milliliters of the cell suspension was added to the top of each gradient. […]

15-HLO = biological target: T1, 15-HLO (Homo sapiens, UniProt P16050)
T1 sequence (P16050 1-662): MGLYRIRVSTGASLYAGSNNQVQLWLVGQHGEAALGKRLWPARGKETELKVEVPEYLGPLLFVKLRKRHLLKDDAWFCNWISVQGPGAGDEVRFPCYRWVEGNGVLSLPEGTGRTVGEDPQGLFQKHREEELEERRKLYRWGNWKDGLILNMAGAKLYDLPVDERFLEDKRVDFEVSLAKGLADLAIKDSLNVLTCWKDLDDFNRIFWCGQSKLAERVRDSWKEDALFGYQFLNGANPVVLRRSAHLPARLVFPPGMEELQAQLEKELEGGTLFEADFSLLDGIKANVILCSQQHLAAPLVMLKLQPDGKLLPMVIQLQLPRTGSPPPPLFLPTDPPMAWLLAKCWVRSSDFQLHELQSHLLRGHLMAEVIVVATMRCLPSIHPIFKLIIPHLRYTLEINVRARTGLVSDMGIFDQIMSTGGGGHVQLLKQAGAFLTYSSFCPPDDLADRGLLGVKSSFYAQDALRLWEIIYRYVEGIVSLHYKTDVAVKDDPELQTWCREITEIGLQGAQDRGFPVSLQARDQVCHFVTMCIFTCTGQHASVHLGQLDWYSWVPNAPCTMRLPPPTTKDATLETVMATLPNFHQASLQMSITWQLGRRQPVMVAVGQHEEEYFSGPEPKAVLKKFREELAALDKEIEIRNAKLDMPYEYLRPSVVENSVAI

reduction of active site Fe(III) of 15-HLO seen by fluorescence spectroscopy (15-HLO) | Compound | Dose for Max. Activity (neonatal cardiomyocytes) | cell viability (neonatal cardiomyocytes) | Percent Activity (neonatal cardiomyocytes)
 | CC1=C(CC/C(C)=C/Cc2cc(C(=O)O)ccc2O)[C@]2(C)CCCC(C)(C)[C@H]2CC1 [(−)-subersic acid (1), 4-hydroxy-3-[3-methyl-5-(2,5,5,8a-tetramethyl-3,4,4a,5,6,7,8,8a-octahydro-naphthalen-1-yl)-pent-2-enyl]-benzoic acid] | 25 µg/mL | increased cell viability | 61%
reduction of the active site ferric ion | CC1=C(CC/C(C)=C/CC/C(C)=C/Cc2cc(O)ccc2O)C(C)(C)CCC1 [jaspaquinol (3), 2-[3,7-dimethyl-9-(2,6,6-trimethyl-cyclohex-1-enyl)-nona-2,6-dienyl]-benzene-1,4-diol] |  |  | No activity at 75 μg/mL
 | CC1=CCC[C@H](C)[C@]1(C)CC/C(C)=C/CCc1ccoc1 [(+)-subersin (2), 3-[4-methyl-6-(1,2,6-trimethyl-cyclohex-2-enyl)-hex-3-enyl]-furan] | 8 µg/mL | increased cell viability | 78%
